Nc1ccc([N+](=O)[O-])cc1[N+](=O)[O-]
solubility (mole fraction)
Settings | in acetone | in acetonitrile | in ethanol | in ethyl acetate | in isopropanol | in methanol | in n-butanol | in n-propanol | in toluene
278.15 K | 0.0281 | 0.00772 | 0.00126 | 0.0116 | 0.000854 | 0.00126 | 0.00144 | 0.00103 | 0.00033
280.65 K | 0.0304 | 0.00829 | 0.0014 | 0.0127 | 0.00097 | 0.00138 | 0.00154 | 0.00116 | 0.000383
283.15 K | 0.0328 | 0.00893 | 0.00154 | 0.0138 | 0.0011 | 0.00156 | 0.00172 | 0.00131 | 0.000443
285.65 K | 0.0355 | 0.0098 | 0.00173 | 0.0151 | 0.00125 | 0.00173 | 0.00193 | 0.00146 | 0.000511
288.15 K | 0.0381 | 0.0108 | 0.00193 | 0.0163 | 0.00142 | 0.00192 | 0.00216 | 0.00163 | 0.000573
290.65 K | 0.0407 | 0.0118 | 0.00211 | 0.0177 | 0.00159 | 0.00212 | 0.00243 | 0.0018 | 0.000642
293.15 K | 0.0437 | 0.0127 | 0.00232 | 0.0191 | 0.00177 | 0.00232 | 0.00271 | 0.00198 | 0.000724
295.65 K | 0.0467 | 0.0138 | 0.00254 | 0.0205 | 0.002 | 0.00253 | 0.00299 | 0.00217 | 0.000814
298.15 K | 0.0497 | 0.0149 | 0.00278 | 0.0221 | 0.00227 | 0.00276 | 0.00329 | 0.00238 | 0.000917
300.65 K | 0.0531 | 0.0161 | 0.00304 | 0.0238 | 0.00253 | 0.00301 | 0.00365 | 0.00262 | 0.00102
303.15 K | 0.0565 | 0.0174 | 0.00331 | 0.0257 | 0.00281 | 0.00327 | 0.00406 | 0.00287 | 0.00114
305.65 K | 0.0604 | 0.0188 | 0.00359 | 0.0278 | 0.00313 | 0.00356 | 0.00447 | 0.00314 | 0.00128
308.15 K | 0.0642 | 0.0203 | 0.00391 | 0.0301 | 0.00346 | 0.00386 | 0.00494 | 0.00346 | 0.00142
310.65 K | 0.0682 | 0.0216 | 0.00428 | 0.0324 | 0.00383 | 0.00421 | 0.00543 | 0.0038 | 0.00158
313.15 K | 0.0723 | 0.023 | 0.00468 | 0.035 | 0.00426 | 0.00456 | 0.00589 | 0.00413 | 0.00175
315.65 K | 0.0769 | 0.0247 | 0.00511 | 0.0374 | 0.00469 | 0.00493 | 0.00646 | 0.00452 | 0.00193
318.15 K | 0.0815 | 0.0264 | 0.00555 | 0.0403 | 0.00522 | 0.00537 | 0.00712 | 0.00493 | 0.00217

Reference: BigSolDB 2.1
